Measurements reported in ChEMBL document CHEMBL1909046, “DrugMatrix in vitro pharmacology data”.

Legend:
[1] = DRUGMATRIX: Leukotriene, BLT (LTB4) radioligand binding (ligand: [3H]LTB4); assay type: cell membranes, Membrane; conditions: u-937; Not Active = under 50% inhibition at 10 µM
[2] = target: Delta-type opioid receptor (Homo sapiens, UniProt P41143); assay type: cell membranes, HEK293, Membrane; conditions: hek293; further: in other assays of this panel Not Active means under 50% inhibition at 10 µM
Delta-type opioid receptor, sequence (P41143 whole entry): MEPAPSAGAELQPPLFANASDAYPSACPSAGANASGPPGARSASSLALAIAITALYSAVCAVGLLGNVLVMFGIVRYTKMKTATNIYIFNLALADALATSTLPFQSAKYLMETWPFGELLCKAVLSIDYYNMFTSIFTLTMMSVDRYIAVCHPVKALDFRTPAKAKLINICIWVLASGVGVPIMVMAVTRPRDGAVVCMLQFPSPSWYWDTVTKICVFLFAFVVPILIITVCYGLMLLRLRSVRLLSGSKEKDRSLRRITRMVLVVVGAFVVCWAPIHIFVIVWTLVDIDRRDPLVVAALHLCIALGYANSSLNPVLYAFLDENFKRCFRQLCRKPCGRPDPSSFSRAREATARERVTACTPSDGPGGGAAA

Estrogen receptor beta = Estrogen receptor beta (Homo sapiens, UniProt Q92731); conditions: sf9; further: in other assays of this panel Not Active means under 50% inhibition at 10 µM
Estrogen receptor beta, sequence (Q92731 whole entry): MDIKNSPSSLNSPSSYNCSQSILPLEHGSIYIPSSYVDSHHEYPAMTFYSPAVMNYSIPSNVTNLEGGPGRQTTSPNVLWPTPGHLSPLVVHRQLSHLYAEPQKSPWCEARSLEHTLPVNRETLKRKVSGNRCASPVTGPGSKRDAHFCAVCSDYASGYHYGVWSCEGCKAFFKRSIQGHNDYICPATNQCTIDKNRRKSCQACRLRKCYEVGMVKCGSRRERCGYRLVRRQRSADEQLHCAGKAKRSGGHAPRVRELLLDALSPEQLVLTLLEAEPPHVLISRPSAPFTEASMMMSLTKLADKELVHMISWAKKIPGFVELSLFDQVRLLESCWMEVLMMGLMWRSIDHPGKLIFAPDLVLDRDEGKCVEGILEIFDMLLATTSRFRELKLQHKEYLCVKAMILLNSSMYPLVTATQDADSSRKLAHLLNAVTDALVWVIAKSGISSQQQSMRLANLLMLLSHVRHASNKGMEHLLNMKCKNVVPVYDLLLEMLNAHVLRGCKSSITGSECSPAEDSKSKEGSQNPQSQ

[3] = target: Prostaglandin G/H synthase 1 (Homo sapiens, UniProt P23219); experiment: biochemical; assay type: tissue-based, Platelet; conditions: platelet;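 further: inhibition of COX-1 enzyme activity, with arachidonic acid supplied as substrate; in other assays of this panel Not Active means under 50% inhibition at 10 µM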
Prostaglandin G/H synthase 1, sequence (P23219 whole entry): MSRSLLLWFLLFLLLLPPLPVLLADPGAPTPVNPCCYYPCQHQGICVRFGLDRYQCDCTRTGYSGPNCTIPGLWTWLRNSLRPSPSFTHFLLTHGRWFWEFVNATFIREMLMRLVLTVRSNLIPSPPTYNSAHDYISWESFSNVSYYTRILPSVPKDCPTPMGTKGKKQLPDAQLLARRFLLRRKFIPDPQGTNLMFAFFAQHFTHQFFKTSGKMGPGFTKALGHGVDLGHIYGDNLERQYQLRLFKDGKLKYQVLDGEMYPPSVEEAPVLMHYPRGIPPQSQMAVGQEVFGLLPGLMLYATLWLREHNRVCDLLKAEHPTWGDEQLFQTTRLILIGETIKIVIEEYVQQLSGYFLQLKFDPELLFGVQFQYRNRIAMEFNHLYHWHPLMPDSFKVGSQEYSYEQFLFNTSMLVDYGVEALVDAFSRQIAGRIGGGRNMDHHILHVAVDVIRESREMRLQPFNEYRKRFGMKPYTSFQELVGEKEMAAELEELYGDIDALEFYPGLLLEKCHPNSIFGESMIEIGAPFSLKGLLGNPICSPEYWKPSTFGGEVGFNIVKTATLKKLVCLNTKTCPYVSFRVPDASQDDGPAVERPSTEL

[4] = target: T1, Amine oxidase [flavin-containing] A (Homo sapiens, UniProt P21397); experiment: DRUGMATRIX: Monoamine Oxidase MAO-A enzyme inhibition (substrate: Kynuramine); parameters: species or system BTI-TN-5B1-4; conditions: bti-tn-5b1-4; Not Active = under 50% inhibition at 10 µM
T1 sequence (P21397 whole entry): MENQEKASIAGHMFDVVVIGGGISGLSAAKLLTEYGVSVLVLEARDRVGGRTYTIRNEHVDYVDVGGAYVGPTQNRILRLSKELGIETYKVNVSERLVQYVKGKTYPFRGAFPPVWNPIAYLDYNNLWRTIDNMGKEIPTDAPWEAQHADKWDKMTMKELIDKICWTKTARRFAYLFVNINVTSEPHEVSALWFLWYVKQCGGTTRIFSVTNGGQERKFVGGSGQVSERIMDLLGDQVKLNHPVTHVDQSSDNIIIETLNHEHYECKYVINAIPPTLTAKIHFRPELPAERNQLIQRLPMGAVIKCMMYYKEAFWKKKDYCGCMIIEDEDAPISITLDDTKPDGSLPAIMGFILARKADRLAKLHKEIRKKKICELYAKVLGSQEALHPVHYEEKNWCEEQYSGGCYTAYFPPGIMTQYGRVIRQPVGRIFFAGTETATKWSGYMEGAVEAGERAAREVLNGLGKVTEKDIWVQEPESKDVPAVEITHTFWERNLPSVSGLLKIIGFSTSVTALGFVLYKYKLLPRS

[5] = target: C-C chemokine receptor type 5 (Homo sapiens, UniProt P51681); assay type: cell membranes, Membrane; conditions: hek293; further: in other assays of this panel Not Active means under 50% inhibition at 10 µM
C-C chemokine receptor type 5, sequence (P51681 whole entry): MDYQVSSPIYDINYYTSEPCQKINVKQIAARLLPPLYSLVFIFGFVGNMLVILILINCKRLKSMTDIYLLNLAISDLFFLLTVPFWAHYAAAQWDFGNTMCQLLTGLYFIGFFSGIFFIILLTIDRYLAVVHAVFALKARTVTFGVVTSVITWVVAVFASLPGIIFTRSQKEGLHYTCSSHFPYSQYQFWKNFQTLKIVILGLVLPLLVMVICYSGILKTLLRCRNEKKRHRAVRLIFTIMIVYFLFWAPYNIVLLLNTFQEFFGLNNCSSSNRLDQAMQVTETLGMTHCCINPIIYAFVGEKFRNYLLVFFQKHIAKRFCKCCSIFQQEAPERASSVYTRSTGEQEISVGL

[6] = target: 5-hydroxytryptamine receptor 2B (Homo sapiens, UniProt P41595); assay type: cell membranes, CHO-K1, Membrane; conditions: cho-k1; further: in other assays of this panel Not Active means under 50% inhibition at 10 µM
5-hydroxytryptamine receptor 2B, sequence (P41595 whole entry): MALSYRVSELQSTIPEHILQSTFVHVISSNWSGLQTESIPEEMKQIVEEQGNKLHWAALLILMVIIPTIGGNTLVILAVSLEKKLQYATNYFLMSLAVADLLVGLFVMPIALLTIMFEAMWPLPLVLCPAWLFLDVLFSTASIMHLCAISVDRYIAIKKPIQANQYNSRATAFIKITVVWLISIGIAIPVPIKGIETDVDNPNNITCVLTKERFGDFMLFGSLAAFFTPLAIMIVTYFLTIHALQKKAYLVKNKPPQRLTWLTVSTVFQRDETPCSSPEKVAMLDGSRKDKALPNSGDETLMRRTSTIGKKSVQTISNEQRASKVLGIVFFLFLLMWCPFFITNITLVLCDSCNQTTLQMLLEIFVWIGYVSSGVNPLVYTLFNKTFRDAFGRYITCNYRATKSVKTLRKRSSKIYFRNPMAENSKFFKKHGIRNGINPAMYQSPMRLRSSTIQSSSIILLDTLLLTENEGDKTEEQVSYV

[7] = DRUGMATRIX: Glutamate, NMDA, Phencyclidine radioligand binding (ligand: [3H] TCP); assay type: cell membranes, Rattus norvegicus, Wistar, Cerebral cortex, Membrane; conditions: Not Active = under 50% inhibition at 10 µM

CCOC(=O)C1=C(C)NC(C)=C(C(=O)OC)C1c1cccc(Cl)c1Cl (stereo not given) [FELODIPINE]
Not Active: IC50 [1] | Ki [1] | IC50 [2] | IC50 (Estrogen receptor beta) | IC50 [3] | IC50 [4] | IC50 [5] | IC50 [6] | IC50 [7] | Ki [7]

Cc1cn[nH]c1 [FOMEPIZOLE]
Not Active: IC50 [1] | Ki [1] | IC50 [2] | IC50 (Estrogen receptor beta) | IC50 [3] | IC50 [4] | IC50 [5] | IC50 [6] | IC50 [7] | Ki [7]

NC[C@@H]1O[C@H](O[C@H]2[C@@H](O)[C@H](O[C@@H]3[C@@H](O)[C@H](N)C[C@H](N)[C@H]3O[C@H]3O[C@H](CN)[C@@H](O)[C@H](O)[C@H]3N)O[C@@H]2CO)[C@H](N)[C@@H](O)[C@@H]1O [FRAMYCETIN]
Not Active: IC50 [1] | Ki [1] | IC50 [2] | IC50 (Estrogen receptor beta) | IC50 [3] | IC50 [4] | IC50 [5] | Ki [6] | IC50 [7] | Ki [7]

C[C@H]([C@](O)(Cn1cncn1)c1ccc(F)cc1F)S(C)(=O)=O [GENACONAZOLE]
Not Active: IC50 [1] | Ki [1] | IC50 [2] | IC50 (Estrogen receptor beta) | IC50 [3] | IC50 [4] | IC50 [5] | IC50 [6] | IC50 [7] | Ki [7]

Cc1cnc(C(=O)NCCc2ccc(S(=O)(=O)NC(=O)NC3CCCCC3)cc2)cn1 [GLIPIZIDE]
Not Active: IC50 [1] | Ki [1] | IC50 [2] | IC50 (Estrogen receptor beta) | IC50 [3] | IC50 [4] | IC50 [5] | IC50 [6] | IC50 [7] | Ki [7]

Cc1c(F)c(N2CCNC(C)C2)cc2c1c(=O)c(C(=O)O)cn2C1CC1 (stereo not given) [GREPAFLOXACIN]
Not Active: IC50 [1] | Ki [1] | IC50 [2] | IC50 (Estrogen receptor beta) | IC50 [3] | IC50 [4] | IC50 [5] | IC50 [6] | IC50 [7] | Ki [7]

COc1ccccc1OCC(O)CO (stereo not given) [GUAIFENESIN]
Not Active: IC50 [1] | Ki [1] | IC50 [2] | IC50 (Estrogen receptor beta) | IC50 [3] | IC50 [4] | IC50 [5] | IC50 [6] | IC50 [7] | Ki [7]

C[C@]12CCC(=O)C=C1CC[C@@H]1[C@@H]2[C@@H](O)C[C@@]2(C)[C@H]1CC[C@]2(O)C(=O)CO [HYDROCORTISONE]
Not Active: IC50 [1] | Ki [1] | IC50 [2] | IC50 (Estrogen receptor beta) | IC50 [3] | IC50 [4] | IC50 [5] | IC50 [6] | IC50 [7] | Ki [7]
